Measurements published in ChEMBL document CHEMBL1201862, “PubChem BioAssay data set” (2004).
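The compound was tested at five concentrations on cells cultured in 96-well plates, with a 48-hour exposure period. The concentration for 50% growth inhibition is given as GI50.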 Activity calls are given as the source filed them. No stated cut-off is given here; in the data, active = GI50 up to about 1.1 µM and inactive = higher. Residues, ends and D or L forms follow the SMILES beside them. *: point of attachment. Boc = CC(C)(C)OC(=O)*; OBn = c1ccc(CO*)cc1

How the values were obtained:
Experiment in all cases: NCI-60 cell line screen, 48 h
SF-268 = tested on: SF-268
IGROV-1 = tested on: IGROV-1
DMS-273 = tested on: DMS-273
SK-MEL-28 = tested on: SK-MEL-28
SN12C = tested on: SN12C
SNB-75 = tested on: SNB-75
K562 = tested on: K562
OVCAR-5 = tested on: OVCAR-5
CCRF-CEM = tested on: CCRF-CEM
ACHN = tested on: ACHN
HCT-116 = tested on: HCT-116
786-0 = tested on: 786-0
COLO 205 = tested on: COLO 205
SK-MEL-5 = tested on: SK-MEL-5
M19-MEL = tested on: M19-MEL
SNB-78 = tested on: SNB-78
NCI-H226 = tested on: NCI-H226
HOP-92 = tested on: HOP-92
DU-145 = tested on: DU-145
MDA-MB-231 = tested on: MDA-MB-231

SMILES	GI50 (SF-268)	GI50 (IGROV-1)	GI50 (DMS-273)	GI50 (SK-MEL-28)	GI50 (SN12C)	GI50 (SNB-75)	GI50 (K562)	GI50 (OVCAR-5)	GI50 (CCRF-CEM)	GI50 (ACHN)	GI50 (HCT-116)	GI50 (786-0)	GI50 (COLO 205)	GI50 (SK-MEL-5)	GI50 (M19-MEL)	GI50 (SNB-78)	GI50 (NCI-H226)	GI50 (HOP-92)	GI50 (DU-145)	GI50 (MDA-MB-231)
O=C(O)c1c[nH]c2c(ccc3ncccc32)c1=O	> 100 µM (inactive)	> 100 µM (inactive)	> 100 µM (inactive)	> 100 µM (inactive)	> 100 µM (inactive)	> 100 µM (inactive)	> 100 µM (inactive)	> 100 µM (inactive)	> 100 µM (inactive)	> 100 µM (inactive)	> 100 µM (inactive)	> 100 µM (inactive)	> 100 µM (inactive)	> 100 µM (inactive)	> 100 µM (inactive)	> 100 µM (inactive)				
O=C(NS(=O)(=O)c1ccccc1)C(Cc1ccccc1)C(Cc1ccccc1)C(=O)NS(=O)(=O)c1ccccc1 (stereo not given)	> 100 µM (inactive)	> 100 µM (inactive)	> 100 µM (inactive)	> 100 µM (inactive)	> 100 µM (inactive)	> 100 µM (inactive)	> 100 µM (inactive)	> 100 µM (inactive)	> 100 µM (inactive)	> 100 µM (inactive)	> 100 µM (inactive)	> 100 µM (inactive)	> 100 µM (inactive)	> 100 µM (inactive)	> 100 µM (inactive)		62.4 µM (inactive)	> 100 µM (inactive)		
CN1CCn2c(Br)ccc2C1=O	> 100 µM (inactive)	> 100 µM (inactive)	> 100 µM (inactive)	> 100 µM (inactive)	> 100 µM (inactive)		> 100 µM (inactive)		> 100 µM (inactive)	> 100 µM (inactive)	> 100 µM (inactive)	> 100 µM (inactive)	> 100 µM (inactive)		> 100 µM (inactive)	> 100 µM (inactive)	> 100 µM (inactive)			
[O-][S+]1c2ccccc2N=C(c2ccc3ccccc3c2)CC1c1ccccc1F (stereo not given)	> 100 µM (inactive)	> 100 µM (inactive)	> 100 µM (inactive)	> 100 µM (inactive)	> 100 µM (inactive)	20.5 µM (inactive)	78.2 µM (inactive)	> 100 µM (inactive)	67.8 µM (inactive)	> 100 µM (inactive)		> 100 µM (inactive)	> 100 µM (inactive)	> 100 µM (inactive)	> 100 µM (inactive)		82.2 µM (inactive)			
CC(NC(=O)CNC(=O)OC(C)(C)C)C(=O)NC(Cc1ccccc1)C(=O)OCc1ccccc1 (stereo not drawn) (Boc-Gly-Ala-Phe-OBn; configuration not given here)	86.9 µM (inactive)	> 100 µM (inactive)		36.5 µM (inactive)	> 100 µM (inactive)	56.2 µM (inactive)	40.3 µM (inactive)	> 100 µM (inactive)	40.9 µM (inactive)	> 100 µM (inactive)	14.9 µM (inactive)	27.9 µM (inactive)	> 100 µM (inactive)	> 100 µM (inactive)			75.7 µM (inactive)	> 100 µM (inactive)	> 100 µM (inactive)	> 100 µM (inactive)
CC[C@@]1(O)C(=O)OCc2c1cc1n(c2=O)Cc2c-1nc1ccc(O)cc1c2[Si](C)(C)C(C)(C)C [AR-67]	< 0.01 µM (active)	< 0.019 µM (active)		0.0317 µM (active)	< 0.01 µM (active)	< 0.01 µM (active)	< 0.0219 µM (active)	0.139 µM (active)	< 0.01 µM (active)	< 0.01 µM (active)	< 0.01 µM (active)	< 0.01 µM (active)	0.031 µM (active)	< 0.01 µM (active)			< 0.01 µM (active)	0.0132 µM (active)	< 0.01 µM (active)	0.286 µM (active)
CC(C)=CCc1c2c(c3occ(-c4ccc(O)cc4)c(=O)c3c1O)CC(C(C)(C)O)O2 (stereo not given) [SENEGALENSIN]	26.5 µM (inactive)	2.8 µM (inactive)		24.3 µM (inactive)	19.6 µM (inactive)	17.8 µM (inactive)	17.2 µM (inactive)	19.1 µM (inactive)	17.5 µM (inactive)	14.8 µM (inactive)	16.7 µM (inactive)	16.8 µM (inactive)	14.6 µM (inactive)	15.2 µM (inactive)			20.3 µM (inactive)	18 µM (inactive)	15.5 µM (inactive)	14.4 µM (inactive)
CCCC(=O)OCC(COC(=O)CCC)OC(=O)CCC [TRIBUTYRIN]	> 100 µM (inactive)	> 100 µM (inactive)		66.1 µM (inactive)	> 100 µM (inactive)	36.7 µM (inactive)	64.7 µM (inactive)	57.3 µM (inactive)	46.1 µM (inactive)	96.2 µM (inactive)	48.8 µM (inactive)	> 100 µM (inactive)	55.6 µM (inactive)	41.8 µM (inactive)			> 100 µM (inactive)	> 100 µM (inactive)	29.9 µM (inactive)	45.2 µM (inactive)
